# Assay results published in US7700608B2, “Quinazoline derivatives and their use in the treatment of thrombocythemia” (Shire Holdings AG, priority 2004, dated 2010).
# Assays:
# [1] = tested on: non-megakaryocytic cells (CD61-); test: Growth of non-megakaryocytic (CD61-) cells in the TPO-stimulated CD34+ cultures; assay type: cell-based; conditions: 12-day cultures, FIG. 2
# Protocol: (§1) Cell culture and drug regimes. Cord blood CD34+ cells were purchased from Biowhittacker USA or were freshly isolated by immunomagnetic selection using standard laboratory procedures. Cells were seeded in 24-well tissue culture plates at a density of 0.15×10^6 cells/ml and cultured for 12-14 days in Iscove's modified Dulbecco's medium containing 40 ng/ml TPO (as described in Mathur A, Hong Y. Martin J F, Erusalimsky J D (2001) Megakaryocytic differentiation is accompanied by a reduction in cell migratory potential. Br J Haematol 112:459) with anagrelide, Compound #1, or vehicle (DMSO).
# (§2) Cell counting. Cell density was determined using a Sysmex CDA-500 Particle Analyzer.
# (§3) Analysis of megakaryocytic differentiation. CD61 expression (a marker of megakaryocytic differentiation) was quantified by flow cytometry using an anti-GPIIIa antibody. Cell diameter was determined using a Sysmex CDA-500 Particle Analyzer.
# To assess whether the inhibitory activities of anagrelide and Compound #1 in these cultures were selective for the megakaryocytic lineage, the effects of these compounds were evaluated on the growth of the non-megakaryocytic cells. In 12-day control cultures these cells (CD61-) represent 20-30% of the total population.
# Cord blood CD34+ cells = test: TPO-induced megakaryocytic maturation/differentiation of cord blood CD34+ cells in culture; assay type: cell-based; conditions: for inhibition at 0.03 µM: 30 nM, CD34+ cells grown with TPO in plasma-containing medium, vs. control, read-out: inhibition of megakaryocytic maturation (percentage of GPIIIa positive cells); for Cell expansion % of control / GPIIIa expression median fluorescence % of control / GPIIIa positive cells % of control / Relative cell size % of control: 1.0 μM, 12 days, plasma-containing medium with TPO, mean ± SE, n = 4; for concentration giving maximal effect on megakaryocyte maturation / IC50: TPO-induced maturation, FIG. 1; for IC50: mean of 2-4 independent experiments, read-out: IC50 against megakaryocyte maturation
# Protocol: Chemicals. Compound #1 was kept at room temperature. Stock solutions (10 mM) were made in DMSO, or PBS pH 5. 0, as indicated. Stock solutions were diluted in culture medium immediately before addition to cell suspensions.
# as §1, §2, §3
Structure (SMILES),effect on growth of non-megakaryocytic cells (selectivity for megakaryocytic lineage) [1],inhibition at 0.03 µM (Cord blood CD34+ cells) [%],Cell expansion % of control (Cord blood CD34+ cells),GPIIIa expression median fluorescence % of control (Cord blood CD34+ cells),GPIIIa positive cells % of control (Cord blood CD34+ cells),Relative cell size % of control (Cord blood CD34+ cells),concentration giving maximal effect on megakaryocyte maturation (Cord blood CD34+ cells) [µM],IC50 (Cord blood CD34+ cells) [nM]
"O=CC(=O)NC1=Nc2ccc(Cl)c(Cl)c2CN1 [Compound #1, N-(5,6-dichloro-3,4-dihydroquinazolin-2-yl)-2-oxoacetamide]",neither anagrelide nor Compound #1 inhibited the growth of non-megakaryocytic cells,20,45.8 ± 3.9 % of control,54.4 ± 14.7 % of control,34.5 ± 4.4 % of control,78.7 ± 5.3 % of control,1,110 to 130
O=C1CN2Cc3c(ccc(Cl)c3Cl)N=C2N1 [Anagrelide],neither anagrelide nor Compound #1 inhibited the growth of non-megakaryocytic cells,28,48.0 ± 4.0 % of control,51.3 ± 11.9 % of control,41.9 ± 6.6 % of control,80.4 ± 4.5 % of control,1,110 to 130
